Reference: US12538922B2, “Composition and methods for parasite control” (priority 2019, dated 2026)
“And” between values parts separate entries of the source, which are not always exact repeats. Equal values may be shown once. Where a name gives a salt, the structure may show the parent alone. Read-outs that look alike come from different tables or passages of the source.

Key:
[1] = tested on: adult Aedes aegypti mosquitoes; test: Mosquito repellency assay (landings and time on warm treated surface); format: in vivo; conditions: for Mean probing time [%, compared to control]: 100% = same time as on vehicle-treated surface; for Repellency, % reduction in landings vs vehicle control: repellency as percentage reduction of control, 100% = no landings
Procedure: The compound of the invention is mixed with ethanol to make a composition that can be applied to a surface and allowed to dry. After the surface is treated with the compounds of the invention and dried, it is heated to human body temperature, and the number of landings and the total time spent by the mosquitoes on the warm surface by adult Aedes aegypti mosquitoes is recorded automatically by machine vision to measure repellency of each compound.
Repellency (based on the number of individual landings on the warm surface) is expressed as a percentage reduction of the control, where the average number of mosquitoes landing on a warm surface treated only with the vehicle solvent is counted. 100% means no mosquitoes landed on the warm surface.
For mosquitoes that still landed on the warm surface, the time spent on the warm surface is also recorded and expressed as a percentage of the control, corresponding to the average time that mosquitoes spent on the same warm surface when treated only with the vehicle solvent. 100% mean that the mosquitoes spent the same time on the treated warm surface as on a warm surface treated only with the vehicle solvent.
Each compound/dose is tested in triplicate using a surface of 18.9 cm2 and 100 microliters of solution without the compound (the placebo) or with the compound dilution spread on the surface, and allowed to dry before the test. The average and standard error on triplicates is calculated. The control (using only vehicle solvent) is run with ethanol. The same population of mosquitoes is exposed first to the warm surface treated with the vehicle solvent, then to the surface treated with the compound. The concentration of the solution comprising the test compound was adjusted to ensure the treatment dosage of the compound is according to the final concentration per surface units area in the table.

[2] = tested on: R. sanguineus tick larvae; conditions: for Repellence Median (Q1-Q3) [%] / Knockdown Median (Q1-Q3) [%]: pure compound; for Repellence Median (Q1-Q3) [%]: median of replicates; for Knockdown Median (Q1-Q3) [%]: motility reduction over 9 min; for Knockdown Minimum effective concentration / Repellence Minimum effective concentration: smallest concentration with median activity above 50% significance limit
Procedure: FIG. 1 Schematic representation of the tick repellent test. 30-60 tick larvae are deposited in the non-treated area of a circular arena (8.96 cm^2) whereby one quadrant of the surface (2.25 cm^2) is treated. After 1 minute, the distribution of ticks in the treated and untreated areas is measured for a duration of 2 minutes. The repellent/deterrent effect is expressed in %: 100% means that ticks completely avoided the treated surface. Toxicity is measured in the same setup over a duration of 8 minutes and the mortality is expressed in % motility reduction between the beginning and the end of the 8 minutes. Dosages are expressed as a quantity (mg or molarity) per surface unit (m^2), as the compound or extract is deposited at the bottom of the well. Pure compounds: dose given in micromoles/m^2; Extracts: dose given in micrograms/m^2. Tests were run in triplicates.
The assay is used to evaluate the repellent/deterrent potential of a test compound or extract. The test includes a preliminary assessment of knockdown efficacy as a secondary endpoint. Knockdown can be defined as a state of intoxication and paralysis that usually precedes death (Wickham et al. (1974) Pesticide Science 5(5): 657-664). The test relies on the questing behavior of ticks that explore their habitat to find a suitable host hunting site and their propensity to avoid areas treated with repellent or irritating substances. Tick knockdown is expressed as a reduction in total motility over a defined period of time, and not by collecting and counting the number of dead and live ticks at the end of the exposure period.
Plant extracts or synthetic pure alkaloids diluted in methanol (extracts) or ethanol (alkaloids) were deposited on the bottom of wells in a six-well plate. Only one quadrant ([…]) of the bottom surface of each well was treated. The solvent was left to evaporate. The final concentration of the plant extracts was, therefore, expressed in mg/m^2, or in micromoles per square meter (μmol/m^2) for the synthetic alkaloids. Final concentrations applied for plant extracts were 893 (R. sanguineus adults only), 446, 141, 44.6, 14.1, and 4.46 mg/m^2, and 300, 100, 30, 10, and 3 μmol/m^2 for pure alkaloids. Approximately 50 R. sanguineus tick larvae, and exactly 5 R. sanguineus adults, or 5 I. ricinus nymphs were added to the untreated area of each well. Positive (DEET, commercial tick repellent) and negative (methanol or ethanol) controls were evaluated in parallel. Each concentration tested was run in three or more test replicates. After a 1-min incubation on a heating plate, the frequency of tick movement in the treated quadrant and in each of the untreated quadrants was recorded by machine vision. Tick movement on the untreated surface was computed as the median of movement on the three untreated quadrants. To estimate deterrence recordings were performed over a period of 2 min for R. sanguineus larvae, and for 3 minutes for R. sanguineus adults and I. ricinus nymphs, after the 1-min pre-exposure period. To assess knockdown effect, recording was extended to 9 min (starting at the 1-min pre-exposure period and lasting an additional 8 minutes).
Deterrence activity was calculated as follows: Percent deterrence=1−(movements on treated area/movements on untreated area)×100.
A difference of 50% between total movements recorded in the treated area versus movements recorded in the untreated area was considered significant.
The tick knockdown effect was calculated similarly: Percent knockdown=1−(movements at the end of the imaging period/movements at the beginning of the imaging period)×100.
A difference of 50% between total movements recorded during the 1 min pre-exposure and total movements measured at 9 min of recording was considered significant.

[3] = Table 5, N = 3 subset of Table 4
[4] = Table 5, N = 3 subset of Table 4, dose 3
[5] = Table 5, N = 3 subset of Table 4, dose 30
[6] = Table 5, N = 3 subset of Table 4, dose 300
[7] = concentration 100 μmol/m^2, dihydrochloride

Structure (SMILES) | Mean probing time [%, compared to control] ([1]; dose 380 μmol/m^2) | Repellency, % reduction in landings vs vehicle control ([1]; dose 380 μmol/m^2) | MEC (μmol/m^2) [2, 3] | % repellency [2, 5] | % mortality [2, 6] | % repellency [2, 6] | Repellence Median (Q1-Q3) [%] ([2]; concentration 3 μmol/m^2) | Knockdown Median (Q1-Q3) [%] ([2]; concentration 3 μmol/m^2) | Knockdown Median (Q1-Q3) [%] ([2]; concentration 10 μmol/m^2) | Knockdown Median (Q1-Q3) [%] ([2]; concentration 30 μmol/m^2) | Repellence Median (Q1-Q3) [%] ([2]; concentration 300 μmol/m^2) | Knockdown Minimum effective concentration [2] | Repellence Median (Q1-Q3) [%] ([2]; concentration 10 μmol/m^2) | Repellence Median (Q1-Q3) [%] ([2]; concentration 30 μmol/m^2) | Repellence Median (Q1-Q3) [%] ([2]; concentration 100 μmol/m^2) | Knockdown Median (Q1-Q3) [%] ([2]; concentration 100 μmol/m^2) | Knockdown Median (Q1-Q3) [%] ([2]; concentration 300 μmol/m^2) | other results
C1=CC[C@H](c2cccnc2)NC1 (single isomer, unassigned) [R enantiomer base, R-(+) anatabine] | 2.7% | 77.9% | – | – | – | – | – | – | – | – | – | – | – | – | – | – | – | Mean probing time [%, compared to control] ([1]; dose 75 μmol/m^2): 29.0%; Repellency, % reduction in landings vs vehicle control ([1]; dose 75 μmol/m^2): 68.9%
C1=CC[C@@H](c2cccnc2)NC1 (single isomer, unassigned) [S enantiomer base, S-(−) anatabine] | 1.6% | 90.0% | – | – | – | – | – | – | – | – | – | – | – | – | – | – | – | Mean probing time [%, compared to control] ([1]; dose 75 μmol/m^2): 20.6%; Repellency, % reduction in landings vs vehicle control ([1]; dose 75 μmol/m^2): 86.5%
C1=CC[C@H](c2cccnc2)NC1 [(R)-anatabine dihydrochloride] | 128.9% | 8.1% | 30 μmol/m^2 | 62% | 24% | 97% | 20.8% | 0% | 7.5% | 11.1% | 88.3% | 100 μmol/m^2 | – | – | – | – | – | % repellency [2, 4]: 0%; Repellence Median (Q1-Q3) [%] ([2]; concentration 10 μmol/m^2, dihydrochloride): 34.4%; Repellence Median (Q1-Q3) [%] ([2]; concentration 10 μmol/m^2, listed as (R)-anatabine, dihydrochloride): 34%; Repellence Median (Q1-Q3) [%] ([2]; concentration 30 μmol/m^2, dihydrochloride): 62.0%; Repellence Median (Q1-Q3) [%] ([2]; concentration 30 μmol/m^2, listed as (R)-anatabine, dihydrochloride): 62%; Repellence Median (Q1-Q3) [%] [2, 7]: 84.3%; Repellence Median (Q1-Q3) [%] ([2]; concentration 100 μmol/m^2, listed as (R)-anatabine, dihydrochloride): 84%; Knockdown Median (Q1-Q3) [%] [2, 7]: 54.5%; Knockdown Median (Q1-Q3) [%] ([2]; concentration 300 μmol/m^2, dihydrochloride): 52.7%; Repellence Minimum effective concentration ([2]; dihydrochloride): 30 μmol/m^2; Mean probing time [%, compared to control] ([1]; dose 760 μmol/m^2): 48.5%; Repellency, % reduction in landings vs vehicle control ([1]; dose 760 μmol/m^2): 42.9%
c1cncc([C@@H]2CCCCN2)c1 [(S)-anabasine] | – | – | >300 μmol/m^2 | – | 14% | 9% | 6.6% | 0% | 6.9% | 10.4% | 40.5% | >300 μmol/m^2 | 42.4% | 46.9% | 58% | 6.0% | 9.5% | –
CN1CCC[C@H]1c1cccnc1 [(S)-nicotine] | – | – | – | – | – | – | – | 3.4% | 1.3% | 26.4% | – | 300 μmol/m^2 | – | – | – | 37% and 37.1% | 95% and 94.5% | –
c1cncc([C@@H]2CCCN2)c1 [(S)-nornicotine] | – | – | 300 μmol/m^2 | 5% | 49% | 70% | 12.3% | 0.7% | 0.4% | 9.9% | 81% and 81.1% | >300 μmol/m^2 | 35.3% | 27.9% | 42.2% | 9% | 18.7% | % mortality [2, 5]: 11%; Repellence Minimum effective concentration [2]: 300 μmol/m^2
CCN(CC)C(=O)c1cccc(C)c1 [DEET, N,N-Diethyl-m-toluamide] | – | – | – | 26% | – | 100% | 31.1% | 0.7% | 10.0% | 2.4% | 100% | >300 μmol/m^2 | 57% and 57.3% | 64% and 63.9% | 75.7% | 5.2% | 11.1% | % repellency [2, 4]: 27%; % mortality ([2]; in vivo): 11%; % repellency ([2]; positive control, dose 8.5 (mg/m^2)): 81.6%; Repellence Minimum effective concentration [2]: 10 μmol/m^2; MEC (Repellency) (mg/m^2) ([2]; tobacco extracts and DEET positive control): 8.5 mg/m^2
C1=CCC(c2cccnc2)NC1 (centres unmarked) [anatabine] | – | – | – | – | – | – | – | – | – | – | – | – | – | – | – | – | – | mosquito repellency, base form compared with HCl salt form ([1]; in vivo): significantly better mosquito repellent than in the HCl salt form; time spent by mosquitoes on treated surface, base form compared with HCl salt form ([1]; in vivo): much shorter time
